Experimental data from patent publication US20260286396A1, “AXL KNOCK OUT CAR T CELLS AND METHODS FOR USE THEREOF” (priority 2023, published 2026).

Tested on: CART19 cells
Experiment: RNA sequencing of CART19 cells with Ingenuity pathway analysis (pathways, upstream regulators)
Type: cell-based, human
Conditions: CART19+JeKo-1, 30 nM TP-0903 vs vehicle, 24 h
Procedure: CART19 cells were isolated using CD4 and CD8 microbeads to […] the JeKo-1 target cells; this isolation step was performed twice to eliminate the possible contamination of JeKo-1 cells. RNA was isolated from the CART19 cells using QIAGEN RNEASY® Plus Mini Kit. RNA was further treated with DNase I (QIAGEN) and purified using RNA Clean & Concentrator (Zymo Research). […] The fastq files were viewed in FastQC to check for quality (Cox et al., Mol Ther., 29 (4): 1529-1540, 2020). After verifying the lack of adapter sequences with FastQC, Cutadapt (Martin, EMBnet, 17:10-12, 2011) was used to filter for reads greater than 32 base pairs. Output files were re-checked for quality using FastQC. The latest human reference genome (GRCh38.p13) was downloaded from NCBI. Genome index files were generated using STAR (Cox et al. 2020, supra, and Dobin et al., Bioinformatics, 29:15-21, 2012). Paired end reads from fastq files were mapped to the genome for each condition. HTSeq was used to generate expression counts for each gene (Cox et al. 2020, supra; and Putri et al., Bioinformatics, 38:2943-2945, 2022). […] The disruption efficiency of the CRISPR/Cas9 GM-CSF knockout was determined using targeted sequencing through PCR and TIDE analysis (software available at tide.nki.nl) as described elsewhere (Sakemura et al. 2021, supra).
RNA sequencing of CART19 cells was then performed. […] Data were analyzed with the use of QIAGEN Ingenuity Pathway Analysis (IPA) (digitalinsights.qiagen.com/IPA; Krämer et al., Bioinformatics 30 (4): 523-530, 2014).

CN1CCN(Cc2ccc(Nc3ncc(Cl)c(Nc4ccccc4S(=O)(=O)N(C)C)n3)cc2)CC1 [TP-0903, Dubermatinib]
ABCG1 Expr Log Ratio: −0.301 | ADORA2A Expr Log Ratio: 0.629 | ADRA1B Expr Log Ratio: −0.268 | AGPAT2 Expr Log Ratio: 0.051 | ALDH2 Expr Log Ratio: −0.892 | APP Expr Log Ratio: 0.132 | ARHGAP5 Expr Log Ratio: 0.025 | ARNT Expr Log Ratio: −0.009 | ATF3 Expr Log Ratio: −0.209 | ATF4 Expr Log Ratio: −0.52 | BCAP31 Expr Log Ratio: 0.118 | BCL3 Expr Log Ratio: 0.097 | BCL6 Expr Log Ratio: 0.021 | BMP7 Expr Log Ratio: −0.942 | BMP10 Expr Log Ratio: −1.585 | BTK Expr Log Ratio: −0.323 | C3 Expr Log Ratio: 0.511 | CALCA Expr Log Ratio: −1.865 | CCND1 Expr Log Ratio: −0.129 | CCR3 Expr Log Ratio: −0.728 | CD2 Expr Log Ratio: 0.318 | CD5 Expr Log Ratio: 0.33 | CD28 Expr Log Ratio: 0.407 | CD38 Expr Log Ratio: −0.087 | CD40LG Expr Log Ratio: 0.131 | CD44 Expr Log Ratio: 0.428 | CD48 Expr Log Ratio: 0.067 | CD274 Expr Log Ratio: −0.506 | COMMD1 Expr Log Ratio: 0.174 | DUSP10 Expr Log Ratio: 0.211 | EBF1 Expr Log Ratio: −0.235 | EDN1 Expr Log Ratio: −0.099 | EIF2AK4 Expr Log Ratio: −0.2 | EPX Expr Log Ratio: −0.176 | ERBB2 Expr Log Ratio: −0.057 | FHL2 Expr Log Ratio: 0.639 | FMR1 Expr Log Ratio: 0.099 | FYN Expr Log Ratio: 0.259 | GAS5-AS1 Expr Log Ratio: −0.022 | GNA14 Expr Log Ratio: −2.841 | HAVCR1 Expr Log Ratio: −0.121 | IGF1 Expr Log Ratio: −0.149 | IGF1R Expr Log Ratio: −0.155 | IKBKB Expr Log Ratio: −0.036 | IKZF2 Expr Log Ratio: −0.318 | IL4R Expr Log Ratio: 0.093 | IL10 Expr Log Ratio: −0.008 | IL15 Expr Log Ratio: 0.191 | IL18 Expr Log Ratio: 0.03 | IL21 Expr Log Ratio: −0.452 | INSIG1 Expr Log Ratio: −0.836 | IRF4 Expr Log Ratio: −0.587 | ITGB2 Expr Log Ratio: 0.114 | KDM1A Expr Log Ratio: 0.09 | KRAS Expr Log Ratio: 0.11 | LEF1 Expr Log Ratio: 0.105 | LGALS3 Expr Log Ratio: −0.014 | LTA Expr Log Ratio: 0.37 | LTBR Expr Log Ratio: 0.08 | MAPK3 Expr Log Ratio: −0.166 | MAPK7 Expr Log Ratio: −0.017 | MBP Expr Log Ratio: 0.105 | MED1 Expr Log Ratio: −0.112 | MIR-29 Expr Log Ratio: −3.808 | MYB Expr Log Ratio: −0.03 | MYDGF Expr Log Ratio: −0.06 | NFATC1 Expr Log Ratio: 0.232 | NFE2L2 Expr Log Ratio: 0.172 | NFIL3 Expr Log Ratio: −0.13 | NFKBIA Expr Log Ratio: 0.173 | NPAT Expr Log Ratio: −0.021 | NR4A2 Expr Log Ratio: 0.982 | NREP Expr Log Ratio: −0.21 | PAF1 Expr Log Ratio: 0.135 | PDCD1 Expr Log Ratio: 0.967 | POU2F1 Expr Log Ratio: −0.356 | PRDM1 Expr Log Ratio: −0.006 | PRKCZ Expr Log Ratio: 0.36 | PTEN Expr Log Ratio: 1.201 | PTPRJ Expr Log Ratio: 0.044 | RAD21L1 Expr Log Ratio: 0.844 | RAMP1 Expr Log Ratio: −0.296 | RRP1B Expr Log Ratio: −0.087 | RXRA Expr Log Ratio: −0.75 | SATB2 Expr Log Ratio: −0.715 | SIRT6 Expr Log Ratio: −0.028 | SMAD2 Expr Log Ratio: −0.395 | SMAD7 Expr Log Ratio: 0.057 | SMC1B Expr Log Ratio: −0.146 | SNCA Expr Log Ratio: 1.134 | SORL1 Expr Log Ratio: 0.047 | SPI1 Expr Log Ratio: −0.215 | SREBF1 Expr Log Ratio: −0.191 | SREBF2 Expr Log Ratio: −0.048 | STAG3 Expr Log Ratio: −0.19 | STARD7 Expr Log Ratio: −0.076 | SUCNR1 Expr Log Ratio: −1.022 | TEAD3 Expr Log Ratio: −0.396 | TERT Expr Log Ratio: −0.599 | TGFB1 Expr Log Ratio: −0.094 | TGFB3 Expr Log Ratio: 0.178 | TGFBR2 Expr Log Ratio: 0.18 | TLR2 Expr Log Ratio: 0.013 | TLR7 Expr Log Ratio: −1.275 | TNFRSF4 Expr Log Ratio: 0.263 | TNFSF15 Expr Log Ratio: 1.42 | TPH1 Expr Log Ratio: 0.019 | TRAF3 Expr Log Ratio: 0.022 | WNT5B Expr Log Ratio: −0.491 | YAP1 Expr Log Ratio: −0.546 | upstream regulator ABCG1 Activation Z-Score: 1.387 | upstream regulator ADORA2A Activation Z-Score: −0.245 | upstream regulator AGPAT2 Activation Z-Score: 1 | upstream regulator ALDH2 Activation Z-Score: 1.432 | upstream regulator APP Activation Z-Score: −2.018 | upstream regulator APP Predicted Activation State: inhibited | upstream regulator ARNT Activation Z-Score: −1.795 | upstream regulator ATF3 Activation Z-Score: −1.227 | upstream regulator ATF4 Activation Z-Score: −2.62 | upstream regulator ATF4 Predicted Activation State: inhibited | upstream regulator BCAP31 Activation Z-Score: −0.968 | upstream regulator BCL3 Activation Z-Score: −1.353 | upstream regulator BCL6 Activation Z-Score: 0.949 | upstream regulator BCR (COMPLEX) Activation Z-Score: −1.126 | upstream regulator BMP7 Activation Z-Score: −1.089 | upstream regulator BMP10 Activation Z-Score: −0.707 | upstream regulator BTK Activation Z-Score: −1.091 | upstream regulator C3 Activation Z-Score: −0.378 | upstream regulator CALCA Activation Z-Score: 0.887 | upstream regulator CCK Activation Z-Score: 0.437 | upstream regulator CCL2 Activation Z-Score: −1.368 | upstream regulator CCND1 Activation Z-Score: 0.042 | upstream regulator CD5 Activation Z-Score: −1.732 | upstream regulator CD28 Activation Z-Score: −1.369 | upstream regulator CD38 Activation Z-Score: −1.353 | upstream regulator CD40LG Activation Z-Score: −2.045 | upstream regulator CD40LG Predicted Activation State: inhibited | upstream regulator CD44 Activation Z-Score: −1.835 | upstream regulator CD274 Activation Z-Score: 0.478 | upstream regulator CG Activation Z-Score: −0.872 | upstream regulator COMMD1 Predicted Activation State: activated | upstream regulator DUSP10 Activation Z-Score: 0.392 | upstream regulator EBF1 Activation Z-Score: −2.182 | upstream regulator EBF1 Predicted Activation State: inhibited | upstream regulator EDN1 Activation Z-Score: −1.02 | upstream regulator EIF2AK4 Activation Z-Score: −2.395 | upstream regulator EIF2AK4 Predicted Activation State: inhibited | upstream regulator ERBB2 Activation Z-Score: −2.46 | upstream regulator ERBB2 Predicted Activation State: inhibited | upstream regulator ERK1/2 Activation Z-Score: −0.915 | upstream regulator ERK Activation Z-Score: −2.029 | upstream regulator ERK Predicted Activation State: inhibited | upstream regulator FHL2 Activation Z-Score: −0.64 | upstream regulator FMR1 Activation Z-Score: 1.976 | upstream regulator FYN Activation Z-Score: −1.446 | upstream regulator HAVCR1 Activation Z-Score: 0.104 | upstream regulator HNF1A-AS1 Activation Z-Score: −2 | upstream regulator HNF1A-AS1 Predicted Activation State: inhibited | upstream regulator ID3 Activation Z-Score: 1.671 | upstream regulator IFN ALPHA/BETA Activation Z-Score: −1.195 | upstream regulator IGF1 Activation Z-Score: −1.148 | upstream regulator IGF1R Activation Z-Score: −0.652 | upstream regulator IKBKB Activation Z-Score: −2.146 | upstream regulator IKBKB Predicted Activation State: inhibited | upstream regulator IL1 Activation Z-Score: −1.785 | upstream regulator IL4R Activation Z-Score: −0.187 | upstream regulator IL10 Activation Z-Score: 1.633 | upstream regulator IL12 (FAMILY) Activation Z-Score: 1.39 | upstream regulator IL15 Activation Z-Score: −1.117 | upstream regulator IL18 Activation Z-Score: −0.28 | upstream regulator IL21 Activation Z-Score: 0.183 | upstream regulator IL27RA Activation Z-Score: 2.207 | upstream regulator IL27RA Predicted Activation State: activated | upstream regulator INSIG1 Activation Z-Score: 1.495 | upstream regulator INSULIN Activation Z-Score: −1.452 | upstream regulator IRF4 Activation Z-Score: 0.415 | upstream regulator ITGB2 Activation Z-Score: −0.128 | upstream regulator KCNIP3 Activation Z-Score: 0.378 | upstream regulator KDM1A Activation Z-Score: 0.351 | upstream regulator KRAS Activation Z-Score: −0.772 | upstream regulator LEF1 Activation Z-Score: 0.367 | upstream regulator LGALS3 Activation Z-Score: −0.747 | upstream regulator LTA Activation Z-Score: −1.763 | upstream regulator LTB Activation Z-Score: −1.246 | upstream regulator LTBR Activation Z-Score: −1.664 | upstream regulator MAPK3 Activation Z-Score: −0.896 | upstream regulator MAPK7 Activation Z-Score: −0.64 | upstream regulator MBP Activation Z-Score: 0.577 | upstream regulator MED1 Activation Z-Score: −1.671 | upstream regulator MIR-29 Activation Z-Score: 1.128 | upstream regulator MIR-450A-5P (AND OTHER MIRNAS W/SEED UUUGCGA) Predicted Activation State: activated | upstream regulator MIRLET7 Activation Z-Score: 0 | upstream regulator MLXIPL Predicted Activation State: inhibited | upstream regulator MTORC1 Activation Z-Score: −2.087 | upstream regulator MTORC1 Predicted Activation State: inhibited | upstream regulator MYB Activation Z-Score: −1.742 | upstream regulator NFAT (FAMILY) Activation Z-Score: −2.176 | upstream regulator NFAT (FAMILY) Predicted Activation State: inhibited | upstream regulator NFATC1 Activation Z-Score: −1.4 | upstream regulator NFE2L2 Activation Z-Score: −1.966 | upstream regulator NFIL3 Activation Z-Score: −2.2 | upstream regulator NFIL3 Predicted Activation State: inhibited | upstream regulator NFKBIA Activation Z-Score: −0.758 | upstream regulator NR4A2 Activation Z-Score: 0.898 | upstream regulator NREP Activation Z-Score: 0.218 | upstream regulator NRG1 Activation Z-Score: −1.949 | upstream regulator P38 MAPK Activation Z-Score: −2.405 | upstream regulator P38 MAPK Predicted Activation State: inhibited | upstream regulator PDCD1 Activation Z-Score: 0.055 | upstream regulator PDX1 Activation Z-Score: 0.24 | upstream regulator POSTN Activation Z-Score: −1 | upstream regulator PRDM1 Activation Z-Score: 0.122 | upstream regulator PRKCZ Activation Z-Score: −0.167 | upstream regulator PTEN Activation Z-Score: 0.449 | upstream regulator PTPRJ Activation Z-Score: 0 | upstream regulator RAS Activation Z-Score: −2.375 | upstream regulator RAS Predicted Activation State: inhibited | upstream regulator RXRA Activation Z-Score: 1.069 | upstream regulator SATB2 Activation Z-Score: −0.152 | upstream regulator SIRT6 Activation Z-Score: 0.064 | upstream regulator SMAD2 Activation Z-Score: −1.681 | upstream regulator SMAD7 Activation Z-Score: −0.135 | upstream regulator SNCA Activation Z-Score: −0.246 | upstream regulator SORL1 Activation Z-Score: −2.714 | upstream regulator SORL1 Predicted Activation State: inhibited | upstream regulator SPI1 Activation Z-Score: −1.174 | upstream regulator SREBF1 Activation Z-Score: −3.191
